# ChEMBL document CHEMBL1201862, “PubChem BioAssay data set” (2004)
# Activity calls are given as the source filed them.
# Key:
# [1] = Luminescence Cell-Based Dose Retest to Confirm Inhibitors of Cancer Stem Cells. [Related pubchem assays (depositor defined):AID2717, AID2721]; assay type: functional; conditions: Homo sapiens
# [2] = target: T1, Streptokinase A (Streptococcus pyogenes serotype M1, UniProt P10520); experiment: viability-normalized secreted streptokinase activity reduction – plasminogen activation absorbance, OD405, dose response (AID 1914); assay type: functional, Streptococcus pyogenes M1 GAS;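 further: secreted streptokinase activity via plasminogen activation per viability signal from cell pellet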
# T1 sequence (P10520 whole entry): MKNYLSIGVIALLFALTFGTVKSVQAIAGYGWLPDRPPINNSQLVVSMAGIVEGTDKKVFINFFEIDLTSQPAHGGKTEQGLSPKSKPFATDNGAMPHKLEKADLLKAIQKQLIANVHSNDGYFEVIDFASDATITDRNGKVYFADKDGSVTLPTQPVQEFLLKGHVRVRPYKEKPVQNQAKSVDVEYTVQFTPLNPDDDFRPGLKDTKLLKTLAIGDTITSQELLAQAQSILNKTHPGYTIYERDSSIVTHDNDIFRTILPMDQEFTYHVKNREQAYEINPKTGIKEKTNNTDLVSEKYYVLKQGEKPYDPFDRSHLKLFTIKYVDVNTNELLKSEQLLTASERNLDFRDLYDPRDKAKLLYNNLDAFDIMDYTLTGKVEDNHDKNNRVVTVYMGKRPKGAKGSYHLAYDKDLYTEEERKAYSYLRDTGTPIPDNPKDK
# [3] = target: Voltage-gated N-type calcium channel alpha-1B subunit/Amyloid beta A4 precursor protein-binding family A member 1 (Homo sapiens, UniProt Q00975+Q02410); assay type: protein assay
# [4] = target: Heat shock cognate 71 kDa protein (Homo sapiens, UniProt P11142); experiment: In Vitro Hsc70 Dose Response Fluorescence Polarization Assay. [Related pubchem assays: 1072 ]
# [5] = target: Eukaryotic translation initiation factor 4E (Mus musculus, UniProt P63073); experiment: blockers of eIF4G binding by eIF4E – biochemical, TR-FRET, dose response (AID 855); assay type: functional;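 further: potency for disrupting eIF4E binding to eIF4GI seen as loss of FRET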
# Sequence of Eukaryotic translation initiation factor 4E (P63073 whole entry): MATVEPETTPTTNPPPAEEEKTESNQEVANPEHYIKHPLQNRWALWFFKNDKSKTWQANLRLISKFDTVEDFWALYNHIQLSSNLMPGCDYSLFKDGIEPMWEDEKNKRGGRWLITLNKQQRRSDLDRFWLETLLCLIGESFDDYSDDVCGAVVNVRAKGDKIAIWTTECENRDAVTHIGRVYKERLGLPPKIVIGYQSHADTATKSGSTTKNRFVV
# [6] = target: T2, Dual specificity protein phosphatase 6 (Rattus norvegicus, UniProt Q64346); assay type: functional;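 further: confirmatory in vitro dose-response testing of MKP-3 inhibition; recombinant His-tagged MKP-3 made in E. coli BL21 with OMFP substrate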
# T2 sequence (Q64346 whole entry): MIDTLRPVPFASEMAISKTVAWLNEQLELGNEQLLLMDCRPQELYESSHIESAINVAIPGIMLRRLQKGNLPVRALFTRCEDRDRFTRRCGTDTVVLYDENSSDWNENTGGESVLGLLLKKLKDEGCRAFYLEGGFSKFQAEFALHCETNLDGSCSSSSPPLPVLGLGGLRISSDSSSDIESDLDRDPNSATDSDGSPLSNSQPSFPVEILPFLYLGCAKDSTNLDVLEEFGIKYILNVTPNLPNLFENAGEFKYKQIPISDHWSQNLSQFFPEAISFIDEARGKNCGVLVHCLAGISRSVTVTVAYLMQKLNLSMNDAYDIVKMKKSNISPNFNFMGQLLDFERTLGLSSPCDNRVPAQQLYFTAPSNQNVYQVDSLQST
# [7] = target: Receptor-type tyrosine-protein kinase FLT3 (Homo sapiens, UniProt P36888); assay type: functional;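 further: FLT3 was tested as one member of a kinome-wide kinase panel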
# Sequence of Receptor-type tyrosine-protein kinase FLT3 (P36888 whole entry): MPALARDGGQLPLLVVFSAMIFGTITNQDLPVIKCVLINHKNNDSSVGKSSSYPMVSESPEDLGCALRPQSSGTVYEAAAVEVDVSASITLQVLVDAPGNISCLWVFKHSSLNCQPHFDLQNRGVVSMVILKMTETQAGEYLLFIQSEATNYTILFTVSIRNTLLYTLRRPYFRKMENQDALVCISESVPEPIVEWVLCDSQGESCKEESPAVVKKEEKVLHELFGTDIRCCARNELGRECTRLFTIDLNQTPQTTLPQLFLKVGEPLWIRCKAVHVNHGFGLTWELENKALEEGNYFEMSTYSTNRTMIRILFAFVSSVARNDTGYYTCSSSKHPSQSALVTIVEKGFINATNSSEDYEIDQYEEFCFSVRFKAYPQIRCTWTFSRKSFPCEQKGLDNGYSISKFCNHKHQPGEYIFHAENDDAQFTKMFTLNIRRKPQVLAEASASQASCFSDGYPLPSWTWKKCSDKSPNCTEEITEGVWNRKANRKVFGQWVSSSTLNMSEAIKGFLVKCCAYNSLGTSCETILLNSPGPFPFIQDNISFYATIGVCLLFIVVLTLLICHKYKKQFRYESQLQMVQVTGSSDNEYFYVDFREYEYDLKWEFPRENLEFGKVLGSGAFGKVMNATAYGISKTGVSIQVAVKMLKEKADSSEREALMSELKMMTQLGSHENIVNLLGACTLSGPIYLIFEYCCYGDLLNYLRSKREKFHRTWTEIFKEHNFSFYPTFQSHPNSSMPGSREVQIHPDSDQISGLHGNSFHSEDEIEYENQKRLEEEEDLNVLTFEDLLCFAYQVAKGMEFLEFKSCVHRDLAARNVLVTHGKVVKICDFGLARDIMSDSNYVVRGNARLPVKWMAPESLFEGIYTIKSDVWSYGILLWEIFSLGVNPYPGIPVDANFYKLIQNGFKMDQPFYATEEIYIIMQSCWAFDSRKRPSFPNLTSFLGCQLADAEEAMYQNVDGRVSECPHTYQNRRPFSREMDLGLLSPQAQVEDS
# [8] = tested on: BJ; experiment: BJ-TERT-LT-ST fibroblast viability loss – cell-based, RAS-independent, luminescence, dose response (AID 1935); assay type: functional; conditions: Homo sapiens;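 further: BJ fibroblasts immortalized with TERT plus LT and ST oncogenes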
# [9] = DRD fibroblast viability loss – cell-based, non-viral oncogenic, luminescence, dose response (AID 1934); assay type: functional; conditions: Homo sapiens
# [10] = target: T3, Aminopeptidase N (Plasmodium falciparum FcB1/Columbia, UniProt O96935); experiment: malaria alanyl aminopeptidase activity blockers – biochemical, fluorogenic H-Leu-NHMec substrate, 1536-well (AID 1445); parameters: species or system Plasmodium falciparum 3D7, 3D7
# T3 sequence (O96935 whole entry): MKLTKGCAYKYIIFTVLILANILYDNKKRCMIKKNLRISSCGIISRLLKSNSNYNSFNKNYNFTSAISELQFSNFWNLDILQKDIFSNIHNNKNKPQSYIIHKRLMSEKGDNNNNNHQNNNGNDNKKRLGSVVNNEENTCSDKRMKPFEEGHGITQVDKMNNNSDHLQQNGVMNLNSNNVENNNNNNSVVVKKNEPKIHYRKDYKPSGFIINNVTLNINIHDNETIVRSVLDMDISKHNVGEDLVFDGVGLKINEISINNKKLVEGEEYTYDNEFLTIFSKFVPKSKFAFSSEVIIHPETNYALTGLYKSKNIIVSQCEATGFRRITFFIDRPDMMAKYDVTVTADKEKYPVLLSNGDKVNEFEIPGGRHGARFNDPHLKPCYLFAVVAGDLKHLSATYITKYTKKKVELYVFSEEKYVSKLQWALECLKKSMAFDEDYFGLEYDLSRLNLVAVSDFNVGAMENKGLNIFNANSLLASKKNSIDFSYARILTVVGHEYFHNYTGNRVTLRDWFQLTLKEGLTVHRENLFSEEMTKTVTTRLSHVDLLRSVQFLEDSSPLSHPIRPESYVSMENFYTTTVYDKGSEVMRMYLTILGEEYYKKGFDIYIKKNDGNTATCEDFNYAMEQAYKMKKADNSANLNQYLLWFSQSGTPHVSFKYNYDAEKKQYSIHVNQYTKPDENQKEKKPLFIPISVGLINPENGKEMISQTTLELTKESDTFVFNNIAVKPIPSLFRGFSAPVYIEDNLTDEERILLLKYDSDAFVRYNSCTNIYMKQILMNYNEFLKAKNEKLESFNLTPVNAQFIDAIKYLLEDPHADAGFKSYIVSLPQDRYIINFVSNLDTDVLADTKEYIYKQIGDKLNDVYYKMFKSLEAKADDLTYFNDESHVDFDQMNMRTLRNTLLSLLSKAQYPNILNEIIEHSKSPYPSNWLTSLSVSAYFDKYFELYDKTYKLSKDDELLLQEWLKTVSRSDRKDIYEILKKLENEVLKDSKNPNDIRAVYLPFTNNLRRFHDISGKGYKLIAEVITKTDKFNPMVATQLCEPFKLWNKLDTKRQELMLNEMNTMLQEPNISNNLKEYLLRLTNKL
# [11] = target: RAC-gamma serine/threonine-protein kinase (Homo sapiens, UniProt Q9Y243); assay type: functional
# Sequence of RAC-gamma serine/threonine-protein kinase (Q9Y243 whole entry): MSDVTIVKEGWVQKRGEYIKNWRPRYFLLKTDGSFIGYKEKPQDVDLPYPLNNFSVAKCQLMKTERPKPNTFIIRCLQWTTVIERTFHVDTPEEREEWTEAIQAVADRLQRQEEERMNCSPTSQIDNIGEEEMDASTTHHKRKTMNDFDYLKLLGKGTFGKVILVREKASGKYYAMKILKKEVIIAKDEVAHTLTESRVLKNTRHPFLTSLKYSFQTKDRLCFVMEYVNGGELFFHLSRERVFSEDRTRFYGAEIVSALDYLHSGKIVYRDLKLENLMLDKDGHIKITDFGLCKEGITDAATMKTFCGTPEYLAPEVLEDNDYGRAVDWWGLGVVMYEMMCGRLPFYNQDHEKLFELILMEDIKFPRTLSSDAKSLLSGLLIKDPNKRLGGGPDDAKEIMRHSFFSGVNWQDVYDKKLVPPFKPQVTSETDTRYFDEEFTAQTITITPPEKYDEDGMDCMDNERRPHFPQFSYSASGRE
# [12] = target: Protein kinase C delta type (Homo sapiens, UniProt Q05655); assay type: functional
# Sequence of Protein kinase C delta type (Q05655 whole entry): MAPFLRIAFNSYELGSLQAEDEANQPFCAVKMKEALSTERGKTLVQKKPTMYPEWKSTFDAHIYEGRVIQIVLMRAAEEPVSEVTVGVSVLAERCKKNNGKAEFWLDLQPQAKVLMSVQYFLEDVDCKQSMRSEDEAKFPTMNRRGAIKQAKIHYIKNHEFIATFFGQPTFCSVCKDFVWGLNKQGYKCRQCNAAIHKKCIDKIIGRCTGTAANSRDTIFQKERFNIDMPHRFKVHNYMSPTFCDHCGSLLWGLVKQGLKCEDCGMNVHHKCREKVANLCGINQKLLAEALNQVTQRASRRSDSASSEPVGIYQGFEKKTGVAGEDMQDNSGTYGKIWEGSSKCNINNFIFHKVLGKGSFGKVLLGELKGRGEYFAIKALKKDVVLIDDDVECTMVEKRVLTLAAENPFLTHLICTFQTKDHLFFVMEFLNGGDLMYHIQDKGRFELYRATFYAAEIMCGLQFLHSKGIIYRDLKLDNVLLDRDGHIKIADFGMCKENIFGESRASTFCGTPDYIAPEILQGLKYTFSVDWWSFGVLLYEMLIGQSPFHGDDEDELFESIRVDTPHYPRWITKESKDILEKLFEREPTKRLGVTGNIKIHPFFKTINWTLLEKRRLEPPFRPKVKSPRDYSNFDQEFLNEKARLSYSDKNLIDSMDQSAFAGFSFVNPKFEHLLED
# [13] = target: Serine/threonine-protein kinase PLK4 (Homo sapiens, UniProt O00444); assay type: functional;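 further: PLK4 measured as one member of a kinome-wide kinase profiling panel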
# [14] = target: Casein kinase II subunit alpha (Homo sapiens, UniProt P68400); assay type: functional
# Sequence of Casein kinase II subunit alpha (P68400 whole entry): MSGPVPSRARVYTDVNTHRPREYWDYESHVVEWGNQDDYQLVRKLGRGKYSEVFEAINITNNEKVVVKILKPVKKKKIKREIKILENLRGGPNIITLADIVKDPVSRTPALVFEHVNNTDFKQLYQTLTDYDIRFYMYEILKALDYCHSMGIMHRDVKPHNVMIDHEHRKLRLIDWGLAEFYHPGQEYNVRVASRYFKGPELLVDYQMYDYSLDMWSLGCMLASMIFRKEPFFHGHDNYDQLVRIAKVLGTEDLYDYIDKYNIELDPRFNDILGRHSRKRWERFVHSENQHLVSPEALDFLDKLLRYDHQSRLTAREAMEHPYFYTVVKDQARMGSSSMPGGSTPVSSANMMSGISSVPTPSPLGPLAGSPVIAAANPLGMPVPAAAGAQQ
# [15] = target: Calcium/calmodulin-dependent protein kinase type II subunit beta (Homo sapiens, UniProt Q13554); assay type: functional
# Sequence of Calcium/calmodulin-dependent protein kinase type II subunit beta (Q13554 whole entry): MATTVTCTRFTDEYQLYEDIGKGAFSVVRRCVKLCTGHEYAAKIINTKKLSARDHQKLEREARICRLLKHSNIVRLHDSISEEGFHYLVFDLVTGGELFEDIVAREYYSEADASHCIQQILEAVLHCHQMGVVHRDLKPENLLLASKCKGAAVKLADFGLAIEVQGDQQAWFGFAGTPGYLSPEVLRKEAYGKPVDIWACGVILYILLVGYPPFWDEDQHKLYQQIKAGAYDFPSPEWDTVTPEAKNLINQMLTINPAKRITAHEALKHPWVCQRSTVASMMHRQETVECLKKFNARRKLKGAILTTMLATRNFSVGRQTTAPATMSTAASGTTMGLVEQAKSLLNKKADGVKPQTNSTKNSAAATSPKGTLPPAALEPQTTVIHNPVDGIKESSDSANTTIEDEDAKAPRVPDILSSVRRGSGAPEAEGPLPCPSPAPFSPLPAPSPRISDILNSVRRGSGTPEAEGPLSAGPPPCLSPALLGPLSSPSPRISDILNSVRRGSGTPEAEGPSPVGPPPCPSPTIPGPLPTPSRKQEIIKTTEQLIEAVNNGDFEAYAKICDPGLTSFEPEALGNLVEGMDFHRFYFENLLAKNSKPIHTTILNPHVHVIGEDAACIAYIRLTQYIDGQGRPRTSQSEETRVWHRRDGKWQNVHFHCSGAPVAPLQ
# [16] = target: Maternal embryonic leucine zipper kinase (Homo sapiens, UniProt Q14680); assay type: functional
# [17] = target: Calcium/calmodulin-dependent protein kinase type 1 (Homo sapiens, UniProt Q14012); assay type: functional
# Sequence of Calcium/calmodulin-dependent protein kinase type 1 (Q14012 whole entry): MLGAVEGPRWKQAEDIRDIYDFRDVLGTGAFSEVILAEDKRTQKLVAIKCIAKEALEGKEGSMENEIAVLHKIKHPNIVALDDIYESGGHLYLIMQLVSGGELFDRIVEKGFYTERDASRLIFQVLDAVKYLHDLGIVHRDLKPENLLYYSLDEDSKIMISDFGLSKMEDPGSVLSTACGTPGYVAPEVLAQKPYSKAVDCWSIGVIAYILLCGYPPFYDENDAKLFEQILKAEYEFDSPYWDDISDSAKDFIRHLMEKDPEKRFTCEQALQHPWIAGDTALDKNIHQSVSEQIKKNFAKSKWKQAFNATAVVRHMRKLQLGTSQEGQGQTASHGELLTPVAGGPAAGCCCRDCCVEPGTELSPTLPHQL
# [18] = target: Inhibitor of nuclear factor kappa-B kinase subunit beta (Homo sapiens, UniProt O14920); assay type: functional
# Sequence of Inhibitor of nuclear factor kappa-B kinase subunit beta (O14920 whole entry): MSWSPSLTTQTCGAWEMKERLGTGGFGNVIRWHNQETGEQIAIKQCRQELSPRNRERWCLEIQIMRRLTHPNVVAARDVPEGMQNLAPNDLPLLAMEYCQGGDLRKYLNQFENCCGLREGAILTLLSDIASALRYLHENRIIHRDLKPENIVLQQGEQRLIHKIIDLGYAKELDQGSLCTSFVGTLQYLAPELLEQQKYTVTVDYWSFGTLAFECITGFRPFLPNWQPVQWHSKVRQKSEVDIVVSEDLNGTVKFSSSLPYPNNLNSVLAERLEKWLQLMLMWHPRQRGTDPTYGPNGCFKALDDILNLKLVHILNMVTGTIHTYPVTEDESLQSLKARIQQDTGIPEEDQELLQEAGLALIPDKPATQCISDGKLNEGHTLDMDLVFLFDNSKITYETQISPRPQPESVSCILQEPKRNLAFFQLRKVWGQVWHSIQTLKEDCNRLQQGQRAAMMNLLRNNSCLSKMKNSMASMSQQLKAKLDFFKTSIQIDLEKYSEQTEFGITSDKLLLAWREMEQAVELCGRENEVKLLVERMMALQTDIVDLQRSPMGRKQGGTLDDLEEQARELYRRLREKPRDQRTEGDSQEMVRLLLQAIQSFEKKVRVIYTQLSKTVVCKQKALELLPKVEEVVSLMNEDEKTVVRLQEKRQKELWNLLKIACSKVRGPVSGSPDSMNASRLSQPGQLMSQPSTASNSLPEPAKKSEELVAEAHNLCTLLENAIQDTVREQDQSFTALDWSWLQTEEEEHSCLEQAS
# 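Wherever AC50 is given: cells exposed to compound for roughly 70 hours or longer before luminescence read.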
smiles,measurement,setting,value
O=C1/C(=C\c2cccc(O)c2O)SC(=S)N1Cc1ccccc1,AC50,[1],1.67 µM (active)
CC(C)(C)c1cc[n+](C2=C([N-]S(=O)(=O)c3cccs3)C(=O)c3ccccc3C2=O)cc1,EC50,[2],3.8 µM (active)
COc1cccc2c1NC(C(=O)O)C1CC=CC21 (stereo not drawn),IC50,[3],13.2 µM (active)
same,IC50,[4],25.2 µM (active)
same,IC50,[5],12.8 µM (active)
same,IC50,[6],13.1 µM (active)
COc1c(-c2nc3ccccc3[nH]2)c(O)cc2oc(C)cc(=O)c12,Ki,[7],0.398 µM (active)
CCc1ccc(S(=O)(=O)/N=C2\C=C(Nc3ccc(O)cc3)C(=O)c3ccccc32)cc1,EC50,[8],2.83 µM (active)
same,EC50,[9],3.33 µM (active)
Cc1cc([N+](=O)[O-])cc(/C=N\NC(=O)C2COc3ccccc3O2)c1O (stereo not drawn),IC50,[10],3.05 µM (active)
Cc1ccc(F)c(NC(=O)Nc2ccc(-c3cccc4[nH]nc(N)c34)cc2)c1 [LINIFANIB],Ki,[11],> 10 µM (inactive)
same,Ki,[12],> 7.94 µM (inactive)
same,Ki,[13],0.631 µM (active)
same,Ki,[14],5.01 µM (active)
same,Ki,[15],3.98 µM (active)
same,Ki,[16],2 µM (active)
same,Ki,[17],6.31 µM (active)
same,Ki,[18],> 3.16 µM (inactive)
